Experimental data as given in publication PMC5845353, “The selective cathepsin K inhibitor MIV-711 attenuates joint pathology in experimental animal models of osteoarthritis” (Journal of Translational Medicine, 2018).

System: rabbits subjected to anterior cruciate ligament transection (ACLT)
Experiment: Rabbit ACLT study, histomorphometry of bone, cartilage and osteophytes
Format: in vivo
Procedure: The femora and tibias were decalcified, embedded in paraffin, sectioned at 5-7 µm at two different levels separated by approximately 2 mm, and stained with safranin O and toluidine blue.
Both tibial plateaus and femoral condyles (i.e. four joint compartments) were also subjected to histomorphometric analysis of cartilage, subchondral bone, cancellous bone, and osteophytes. The measurements were made using OsteoMeasureXP version 3.3.0.2 as follows:
Uncalcified cartilage area was measured by tracing the articular surface (cartilage perimeter) and bone or calcified cartilage/uncalcified cartilage interface (cartilage boundary).
Cartilage width was measured by point to point measurement at intersections between a sampling grid with approximately 0.5 mm spacing and the cartilage boundary. The intercepts measured were orthogonal to the cartilage boundary and ended at the cartilage perimeter. At intersections where the cartilage width was zero due to erosion, a value of zero was recorded.
Subchondral bone width was measured by point to point measurement at intersections between a sampling grid with approximately 0.5 mm spacing and the cartilage boundary. The intercepts measured were orthogonal to the cartilage boundary and ended at the first marrow cavity encountered that had at least one dimension approximately equivalent to nearby trabecular thickness.
Osteophyte area was measured for abaxial osteophytes. On the femur, osteophytes associated with the condyles but not with the trochlear grooves were measured.
Bone area (including osteoid) and perimeter were measured in a 3.8 X 1.5 mm ROI centered approximately 1 mm below the bone/cartilage interface. This ROI was intended to be equivalent to the subchondral cancellous bone VOI measured by microCT. Bone volume (BV/TV), trabecular thickness (Tb.Th), trabecular number (Tb.N) and trabecular separation (Tb.Sp) were derived from these measurements using standard formulae.
Slides were evaluated in animal ID order, i.e. in random order with respect to treatment, so that the measurer was effectively blinded to treatment assignment.
Analysis was performed on all four condyles at two levels (Level 1 and 2) for each condyle:
Group 1) sham + vehicle; Group 2) ACLT + vehicle; Group 3) ACLT + MIV-711, 30 µmol/kg (low dose) and Group 4) ACLT + MIV-711, 100 µmol/kg (high dose).

[1] = Level 1 LFC, Group 3, ACLT + MIV-711 30 µmol/kg
[2] = Level 1 LFC, Group 4, ACLT + MIV-711 100 µmol/kg

C#C[C@@H]1CN(C(=O)[C@H](CC(C)C)NC(=O)c2ccc(-c3nc(N4CCN(C)CC4)sc3F)cc2)[C@@H]2C(=O)CO[C@H]12 [MIV-711]
effect on osteophyte parameters at the microscopic level (ACLT rabbits, 30 and 100 µmol/kg): did not affect
Cart.Bd, Mean (Level 1, MFC, Group 3): 8.37 mm
Cart.Bd, Median (Level 1, MFC, Group 3): 8.42 mm
Cart.Pm, Mean (Level 1, MFC, Group 3): 9.31 mm
Cart.Pm, Median (Level 1, MFC, Group 3): 9.55 mm
Cart.Wi, Mean (Level 1, MFC, Group 3): 264.49 µm
Cart.Wi, Median (Level 1, MFC, Group 3): 233.46 µm
SCB.Wi, Mean (Level 1, MFC, Group 3): 796.52 µm
SCB.Wi, Median (Level 1, MFC, Group 3): 695.73 µm
Cart.Bd, Mean (Level 1, MFC, Group 4): 8.94 mm
Cart.Bd, Median (Level 1, MFC, Group 4): 8.89 mm
Cart.Pm, Mean (Level 1, MFC, Group 4): 10.24 mm
Cart.Pm, Median (Level 1, MFC, Group 4): 10.20 mm
Cart.Wi, Mean (Level 1, MFC, Group 4): 323.96 µm
Cart.Wi, Median (Level 1, MFC, Group 4): 341.58 µm
SCB.Wi, Mean (Level 1, MFC, Group 4): 655.48 µm
SCB.Wi, Median (Level 1, MFC, Group 4): 627.36 µm
BV/TV, Mean (Level 1, MTP, Group 3): 37.43%
BV/TV, Median (Level 1, MTP, Group 3): 39.13%
Cart.Ar, Mean (Level 1, MTP, Group 3): 3.43 mm2
Cart.Ar, Median (Level 1, MTP, Group 3): 3.15 mm2
Cart.Bd, Mean (Level 1, MTP, Group 3): 5.74 mm
Cart.Bd, Median (Level 1, MTP, Group 3): 5.82 mm
Cart.Pm, Mean (Level 1, MTP, Group 3): 5.96 mm
Cart.Pm, Median (Level 1, MTP, Group 3): 5.73 mm
Cart.Wi, Mean (Level 1, MTP, Group 3): 627.75 µm
Cart.Wi, Median (Level 1, MTP, Group 3): 633.18 µm
Ophte.Ar, Mean (Level 1, MTP, Group 3): 7.76 mm2
Ophte.Ar, Median (Level 1, MTP, Group 3): 7.61 mm2
SCB.Wi, Mean (Level 1, MTP, Group 3): 718.50 µm
SCB.Wi, Median (Level 1, MTP, Group 3): 715.91 µm
Tb.N, Mean (Level 1, MTP, Group 3): 2.07 1/mm
Tb.N, Median (Level 1, MTP, Group 3): 1.97 1/mm
Tb.Sp, Mean (Level 1, MTP, Group 3): 306.15 µm
Tb.Sp, Median (Level 1, MTP, Group 3): 294.58 µm
Tb.Th, Mean (Level 1, MTP, Group 3): 182.44 µm
Tb.Th, Median (Level 1, MTP, Group 3): 174.84 µm
BV/TV, Mean (Level 1, MTP, Group 4): 35.92%
BV/TV, Median (Level 1, MTP, Group 4): 35.01%
Cart.Ar, Mean (Level 1, MTP, Group 4): 2.98 mm2
Cart.Ar, Median (Level 1, MTP, Group 4): 3.00 mm2
Cart.Bd, Mean (Level 1, MTP, Group 4): 5.22 mm
Cart.Bd, Median (Level 1, MTP, Group 4): 5.08 mm
Cart.Pm, Mean (Level 1, MTP, Group 4): 6.31 mm
Cart.Pm, Median (Level 1, MTP, Group 4): 5.70 mm
Cart.Wi, Mean (Level 1, MTP, Group 4): 618.52 µm
Cart.Wi, Median (Level 1, MTP, Group 4): 551.09 µm
Ophte.Ar, Mean (Level 1, MTP, Group 4): 9.09 mm2
Ophte.Ar, Median (Level 1, MTP, Group 4): 7.85 mm2
SCB.Wi, Mean (Level 1, MTP, Group 4): 839.92 µm
SCB.Wi, Median (Level 1, MTP, Group 4): 790.92 µm
Tb.N, Mean (Level 1, MTP, Group 4): 1.91 1/mm
Tb.N, Median (Level 1, MTP, Group 4): 1.80 1/mm
Tb.Sp, Mean (Level 1, MTP, Group 4): 346.56 µm
Tb.Sp, Median (Level 1, MTP, Group 4): 370.02 µm
Tb.Th, Mean (Level 1, MTP, Group 4): 190.56 µm
Tb.Th, Median (Level 1, MTP, Group 4): 188.86 µm
BV/TV, Mean [1]: 37.49%
BV/TV, Median [1]: 36.26%
Cart.Ar, Mean [1]: 2.52 mm2
Cart.Ar, Median [1]: 2.55 mm2
Cart.Bd, Mean [1]: 9.42 mm
Cart.Bd, Median [1]: 9.52 mm
Cart.Pm, Mean [1]: 10.23 mm
Cart.Pm, Median [1]: 10.40 mm
Cart.Wi, Mean [1]: 263.55 µm
Cart.Wi, Median [1]: 269.31 µm
Ophte.Ar, Mean [1]: 2.48 mm2
Ophte.Ar, Median [1]: 1.89 mm2
SCB.Wi, Mean [1]: 527.88 µm
SCB.Wi, Median [1]: 537.74 µm
Tb.N, Mean [1]: 2.87 1/mm
Tb.N, Median [1]: 2.78 1/mm
Tb.Sp, Mean [1]: 221.27 µm
Tb.Sp, Median [1]: 221.54 µm
Tb.Th, Mean [1]: 131.58 µm
Tb.Th, Median [1]: 132.19 µm
BV/TV, Mean [2]: 40.76%
BV/TV, Median [2]: 39.99%
Cart.Ar, Mean [2]: 3.28 mm2
